From patent US10294234B2, “HIV inhibitor compounds” (priority 2017, dated 2019)

Test system: HIV-1 (IIIB) in MT-4 cells
Experiment: MT-4 HIV assay
Format: cell-based
Conditions: Human immunodeficiency virus 1, MT4, 120 h
Method: Compounds were tested in a high-throughput 384-well assay format for their ability to inhibit the replication of HIV-1 (IIIB) in MT-4 cells. Compounds were serially diluted (1:3) in DMSO on 384-well polypropylene plates and further diluted 200-fold into complete RPMI media (10% FBS, 1% P/S) using the Biotek Micro Flow and Agilent ECHO acoustic dispenser. Each plate contained up to 8 test compounds, with negative (No Drug Control) and 5 uM AZT positive controls. MT-4 cells were pre-infected with 10 uL of either RPMI (mock-infected) or a fresh 1:250 dilution of an HIV-1 (IIIB) concentrated virus stock. Infected and uninfected MT-4 cells were further diluted in complete RPMI media and added to each plate using a Micro Flow dispenser. After 5 days incubation in a humidified and temperature controlled incubator (37° C.), Cell Titer Glo (Promega) was added to the assay plates to quantify the amount of luciferase.

| SMILES | EC50 |
| --- | --- |
| COC(=O)N[C@H](C(=O)N[C@@H](Cc1ccc(C#Cc2ccc(N3CC[N+]([O-])(C4COC4)CC3)nc2)cc1)[C@@H](O)CN(Cc1c(F)cc(-c2ccn(C(F)F)n2)cc1F)NC(=O)[C@@H](NC(=O)OC)C(C)(C)C(F)(F)F)C(C)(C)C(F)(F)F [Example 54, 4-(5-((4-((2S,3S)-4-(1-(4-(1-(difluoromethyl)-1H-pyrazol-3-yl)-2,6-difluorobenzyl)-2-((S)-4,4,4-trifluoro-2-((methoxycarbonyl)amino)-3,3-dimethylbutanoyl)hydrazinyl)-3-hydroxy-2-((S)-4,4,4-trifluoro-2-((methoxycarbonyl)amino)-3,3-dimethylbutanamido)butyl)phenyl)ethynyl)pyridin-2-yl)-1-(oxetan-3-yl)piperazine 1-oxide] | 8.47 nM |

Same assay, conditions: Human immunodeficiency virus 1, MT4, 120 h; HIV-1 (IIIB), MT-4 cells, 5 days, Cell Titer Glo; read-out: EC50

| SMILES | EC50 |
| --- | --- |
| COC(=O)N[C@H](C(=O)N[C@@H](Cc1ccc(C#Cc2ccc(N3C[C@H]4C[C@@H]3CN4C3COC3)nc2)cc1)[C@@H](O)CN(Cc1ccc(-c2ccn(C3CC3)n2)cc1)NC(=O)[C@@H](NC(=O)OC)C(C)(C)C(F)(F)F)C(C)(C)C(F)(F)F [Example 28, Methyl ((5S,8S,9S,14S)-11-(4-(1-cyclopropyl-1H-pyrazol-3-yl)benzyl)-16,16,16-trifluoro-9-hydroxy-15,15-dimethyl-8-(4-((6-((1R,4R)-5-(oxetan-3-yl)-2,5-diazabicyclo[2.2.1]heptan-2-yl)pyridin-3-yl)ethynyl)benzyl)-3,6,13-trioxo-5-(1,1,1-trifluoro-2-methylpropan-2-yl)-2-oxa-4,7,11,12-tetraazahexadecan-14-yl)carbamate] | 4.56 nM |
| COC(=O)N[C@H](C(=O)N[C@@H](Cc1ccc(C#Cc2ccc(N3C[C@H]4C[C@@H]3CN4C3COC3)nc2)cc1)[C@@H](O)CN(Cc1ccc(-c2ccn(C(F)F)n2)cc1)NC(=O)[C@@H](NC(=O)OC)C(C)(C)C(F)(F)F)C(C)(C)C(F)(F)F [Example 29, Methyl ((5S,8S,9S,14S)-11-(4-(1-(difluoromethyl)-1H-pyrazol-3-yl)benzyl)-16,16,16-trifluoro-9-hydroxy-15,15-dimethyl-8-(4-((6-((1R,4R)-5-(oxetan-3-yl)-2,5-diazabicyclo [2.2.1]heptan-2-yl)pyridin-3-yl)ethynyl)benzyl)-3,6,13-trioxo-5-(1,1,1-trifluoro-2-methylpropan-2-yl)-2-oxa-4,7,11,12-tetraazahexadecan-14-yl)carbamate] | 4.02 nM |
| COC(=O)N[C@H](C(=O)N[C@@H](Cc1ccc(C#Cc2cnc(N3C[C@H]4C[C@@H]3CN4C3COC3)nc2)cc1)[C@@H](O)CN(Cc1ccc(-c2ccn(C3CC3)n2)cc1)NC(=O)[C@@H](NC(=O)OC)C(C)(C)C(F)(F)F)C(C)(C)C(F)(F)F [Example 30, methyl ((5S,8S,9S,14S)-11-(4-(1-cyclopropyl-1H-pyrazol-3-yl)benzyl)-16,16,16-trifluoro-9-hydroxy-15,15-dimethyl-8-(4-((2-((1R,4R)-5-(oxetan-3-yl)-2,5-diazabicyclo[2.2.1]heptan-2-yl)pyrimidin-5-yl)ethynyl)benzyl)-3,6,13-trioxo-5-(1,1,1-trifluoro-2-methylpropan-2-yl)-2-oxa-4,7,11,12-tetraazahexadecan-14-yl)carbamate] | 4.44 nM |
| COC(=O)N[C@H](C(=O)N[C@@H](Cc1ccc(C#Cc2cnc(N3CC4CCC(C3)N4C3COC3)nc2)cc1)[C@@H](O)CN(Cc1ccc(-c2ccn(C3CC3)n2)cc1)NC(=O)[C@@H](NC(=O)OC)C(C)(C)C(F)(F)F)C(C)(C)C(F)(F)F [Example 33, Methyl ((5S,8S,9S,14S)-11-(4-(1-cyclopropyl-1H-pyrazol-3-yl)benzyl)-16,16,16-trifluoro-9-hydroxy-15,15-dimethyl-8-(4-((2-(8-(oxetan-3-yl)-3,8-diazabicyclo [3.2.1]octan-3-yl)pyrimidin-5-yl)ethynyl)benzyl)-3,6,13-trioxo-5-(1,1,1-trifluoro-2-methylpropan-2-yl)-2-oxa-4,7,11,12-tetraazahexadecan-14-yl)carbamate] | 4.71 nM |
| COC(=O)N[C@H](C(=O)N[C@@H](Cc1ccc(C#Cc2ccc(N3CC4CCC(C3)N4C3COC3)nc2)cc1)[C@@H](O)CN(Cc1ccc(-c2ccn(C3CC3)n2)cc1)NC(=O)[C@@H](NC(=O)OC)C(C)(C)C(F)(F)F)C(C)(C)C(F)(F)F [Example 34, Methyl ((5S,8S,9S,14S)-11-(4-(1-cyclopropyl-1H-pyrazol-3-yl)benzyl)-16,16,16-trifluoro-9-hydroxy-15,15-dimethyl-8-(4-((6-(8-(oxetan-3-yl)-3,8-diazabicyclo [3.2.1]octan-3-yl)pyridin-3-yl)ethynyl)benzyl)-3,6,13-trioxo-5-(1,1,1-trifluoro-2-methylpropan-2-yl)-2-oxa-4,7,11,12-tetraazahexadecan-14-yl)carbamate] | 5.26 nM |
| COC(=O)N[C@H](C(=O)N[C@@H](Cc1ccc(C#Cc2ccc(N3CC4CC(C3)N4C3COC3)nc2)cc1)[C@@H](O)CN(Cc1c(F)cc(-c2ccc(N3CC4CC(C3)N4C3COC3)nc2)cc1F)NC(=O)[C@@H](NC(=O)OC)C(C)(C)C(F)(F)F)C(C)(C)C(F)(F)F [Example 38, Methyl ((5S,8S,9S,14S)-11-(2,6-difluoro-4-(6-(6-(oxetan-3-yl)-3,6-diazabicyclo[3.1.1]heptan-3-yl)pyridin-3-yl)benzyl)-16,16,16-trifluoro-9-hydroxy-15,15-dimethyl-8-(4-((6-(6-(oxetan-3-yl)-3,6-diazabicyclo[3.1.1]heptan-3-yl)pyridin-3-yl)ethynyl)benzyl)-3,6,13-trioxo-5-(1,1,1-trifluoro-2-methylpropan-2-yl)-2-oxa-4,7,11,12-tetraazahexadecan-14-yl)carbamate] | 6.13 nM |
| COC(=O)N[C@H](C(=O)N[C@@H](Cc1ccc(C#Cc2ccc(N3CC4CC(C3)N4C3COC3)nc2)cc1)[C@@H](O)CN(Cc1c(F)cc(-c2ccn(CC(F)F)n2)cc1F)NC(=O)[C@@H](NC(=O)OC)C(C)(C)C(F)(F)F)C(C)(C)C(F)(F)F [Example 41, Methyl ((5S,8S,9S,14S)-11-(4-(1-(2,2-difluoroethyl)-1H-pyrazol-3-yl)-2,6-difluorobenzyl)-16,16,16-trifluoro-9-hydroxy-15,15-dimethyl-8-(4-((6-(6-(oxetan-3-yl)-3,6-diazabicyclo[3.1.1]heptan-3-yl)pyridin-3-yl)ethynyl)benzyl)-3,6,13-trioxo-5-(1,1,1-trifluoro-2-methylpropan-2-yl)-2-oxa-4,7,11,12-tetraazahexadecan-14-yl)carbamate] | 3.58 nM |
| COC(=O)N[C@H](C(=O)N[C@@H](Cc1ccc(C#Cc2cnc(N3CC4CC(C3)N4C3COC3)nc2)cc1)[C@@H](O)CN(Cc1c(F)cc(-c2ccn(C(F)F)n2)cc1F)NC(=O)[C@@H](NC(=O)OC)C(C)(C)C(F)(F)F)C(C)(C)C(F)(F)F [Example 42, Methyl ((5S,8S,9S,14S)-11-(4-(1-(difluoromethyl)-1H-pyrazol-3-yl)-2,6-difluorobenzyl)-16,16,16-trifluoro-9-hydroxy-15,15-dimethyl-8-(4-((2-(6-(oxetan-3-yl)-3,6-diazabicyclo[3.1.1]heptan-3-yl)pyrimidin-5-yl)ethynyl)benzyl)-3,6,13-trioxo-5-(1,1,1-trifluoro-2-methylpropan-2-yl)-2-oxa-4,7,11,12-tetraazahexadecan-14-yl)carbamate] | 3.18 nM |
| COC(=O)N[C@H](C(=O)N[C@@H](Cc1ccc(C#Cc2ccc3nc(N4CC5CCC(C4)N5C4COC4)ccc3n2)cc1)[C@@H](O)CN(Cc1c(F)cc(-c2ccn(C(F)F)n2)cc1F)NC(=O)[C@@H](NC(=O)OC)C(C)(C)C(F)(F)F)C(C)(C)C(F)(F)F [Example 47, Methyl ((5S,8S,9S,14S)-11-(4-(1-(difluoromethyl)-1H-pyrazol-3-yl)-2,6-difluorobenzyl)-16,16,16-trifluoro-9-hydroxy-15,15-dimethyl-8-(4-((6-(8-(oxetan-3-yl)-3,8-diazabicyclo[3.2.1]octan-3-yl)-1,5-naphthyridin-2-yl)ethynyl)benzyl)-3,6,13-trioxo-5-(1,1,1-trifluoro-2-methylpropan-2-yl)-2-oxa-4,7,11,12-tetraazahexadecan-14-yl)carbamate] | 7.18 nM |
| COC(=O)N[C@H](C(=O)N[C@@H](Cc1ccc(C#Cc2nc(N3CC4CCC(C3)N4C3COC3)nc(N3C[C@H]4CC[C@@H](C3)N4C3COC3)n2)cc1)[C@@H](O)CN(Cc1c(F)cc(-c2ccn(C(F)F)n2)cc1F)NC(=O)[C@@H](NC(=O)OC)C(C)(C)C(F)(F)F)C(C)(C)C(F)(F)F [Example 49, Methyl ((5S,8S,9S,14S)-11-(4-(1-(difluoromethyl)-1H-pyrazol-3-yl)-2,6-difluorobenzyl)-16,16,16-trifluoro-9-hydroxy-15,15-dimethyl-8-(4-((4-((1R,5S)-8-(oxetan-3-yl)-3,8-diazabicyclo[3.2.1]octan-3-yl)-6-(8-(oxetan-3-yl)-3,8-diazabicyclo[3.2.1]octan-3-yl)-1,3,5-triazin-2-yl)ethynyl)benzyl)-3,6,13-trioxo-5-(1,1,1-trifluoro-2-methylpropan-2-yl)-2-oxa-4,7,11,12-tetraazahexadecan-14-yl)carbamate] | 37.3 nM |
| COC(=O)N[C@H](C(=O)N[C@@H](Cc1ccc(C#Cc2ccc(N3CCN4CCOC[C@@H]4C3)nc2)cc1)[C@@H](O)CN(Cc1c(F)cc(-c2ccn(C(F)F)n2)cc1F)NC(=O)[C@@H](NC(=O)OC)C(C)(C)C(F)(F)F)C(C)(C)C(F)(F)F [Example 55, Methyl ((5S,8S,9S,14S)-11-(4-(1-(difluoromethyl)-1H-pyrazol-3-yl)-2,6-difluorobenzyl)-16,16,16-trifluoro-8-(4-((6-((S)-hexahydropyrazino[2,1-c][1,4]oxazin-8(1H)-yl)pyridin-3-yl)ethynyl)benzyl)-9-hydroxy-15,15-dimethyl-3,6,13-trioxo-5-(1,1,1-trifluoro-2-methylpropan-2-yl)-2-oxa-4,7,11,12-tetraazahexadecan-14-yl)carbamate] | 4.44 nM |
